Test: xn = mol fraction of the nth substance listed
Settings: 101.3 kPa

CCCCn1cc[n+](C)c1C.O=S(=O)([N-]S(=O)(=O)C(F)(F)F)C(F)(F)F + CC1COC(=O)O1
viscosity [mPa·s]
Settings | x1 = 0.0902 | x1 = 0.193 | x1 = 0.2934 | x1 = 0.4039 | x1 = 0.4996 | x1 = 0.6034 | x1 = 0.6989 | x1 = 0.8107 | x1 = 0.8987 | x1 = 1
288.15 K | 5.24 | 9.07 | 14.94 | 24.89 | 37.46 | 54.7 | – | 104.9 | 137 | 178.8
293.15 K | – | 7.79 | 12.54 | 20.44 | 30.16 | – | 59.4 | 80.2 | 103.2 | 132.9
298.15 K | 4.073 | 6.76 | 10.65 | – | 24.69 | 34.79 | 47.12 | 62.7 | 79.6 | 101.1
303.15 K | 3.637 | – | 9.15 | 14.34 | – | 28.47 | 38.01 | – | 62.6 | –
308.15 K | 3.272 | – | 7.95 | 12.21 | 17.68 | 23.64 | 31.16 | – | 50.2 | 62.2
313.15 K | – | 4.661 | 6.97 | – | 15.21 | 19.88 | 25.91 | 33.28 | 40.89 | –
318.15 K | 2.693 | – | – | 9.16 | – | 17.36 | 21.81 | – | 33.77 | –
323.15 K | 2.463 | 3.77 | 5.49 | 8.04 | 11.16 | 15.04 | 18.72 | 23.39 | 28.28 | 34.04
328.15 K | – | 3.421 | 4.92 | 7.12 | 9.65 | 12.98 | 16.46 | 19.94 | 23.94 | 28.58
333.15 K | 2.088 | 3.121 | 4.439 | 6.34 | 8.42 | 11.22 | 14.32 | – | 20.47 | –
338.15 K | 1.933 | 2.86 | – | 5.69 | – | 9.78 | 12.45 | 15.42 | 17.95 | 20.79
343.15 K | 1.796 | 2.633 | 3.671 | 5.13 | – | – | 10.85 | 13.47 | 15.87 | 18.12
348.15 K | 1.675 | 2.433 | 3.363 | 4.658 | 5.82 | 7.58 | 9.51 | 11.82 | 13.95 | 16.01

CC[n+]1ccn(C)c1C.O=S(=O)([N-]S(=O)(=O)C(F)(F)F)C(F)(F)F + CC1COC(=O)O1
viscosity [mPa·s]
Settings | x1 = 0.1025 | x1 = 0.203 | x1 = 0.3078 | x1 = 0.3994 | x1 = 0.5149 | x1 = 0.5825 | x1 = 0.7004 | x1 = 0.8032 | x1 = 0.8903 | x1 = 1
293.15 K | 4.428 | 6.93 | 10.56 | 14.82 | 23.06 | 28.58 | 40.63 | 54.1 | 67.4 | 88.1
298.15 K | 3.939 | 6.07 | 9.11 | 12.62 | 19.36 | 23.79 | 33.34 | 43.9 | 54.2 | 69.8
303.15 K | 3.529 | – | 7.94 | 10.86 | 16.94 | – | 27.76 | 36.2 | 44.35 | 56.4
308.15 K | 3.181 | 4.77 | 6.98 | 9.45 | 14.61 | 17.55 | 23.4 | 30.24 | 36.77 | 46.1
313.15 K | 2.886 | 4.278 | 6.18 | 8.29 | 12.57 | 15.29 | – | 25.57 | 30.87 | 38.26
318.15 K | 2.631 | 3.864 | 5.52 | – | – | 13.22 | 17.6 | – | 26.2 | 32.15
323.15 K | – | 3.506 | 4.96 | 6.54 | – | 11.45 | – | 18.92 | 22.48 | 27.31
328.15 K | 2.218 | – | 4.485 | 5.86 | 8.27 | 9.99 | 13.53 | – | 19.46 | 23.43
333.15 K | 2.05 | 2.932 | 4.078 | – | 7.31 | 8.77 | 11.81 | 14.88 | 17.38 | 20.28
338.15 K | 1.901 | 2.699 | – | 4.8 | 6.49 | 7.77 | 10.37 | 13.07 | 15.46 | 17.69
343.15 K | 1.769 | 2.494 | 3.419 | – | 5.82 | – | 9.15 | 11.54 | – | 15.62
348.15 K | – | 2.312 | 3.149 | 4.011 | 5.23 | 6.15 | – | 10.17 | 12.07 | 13.94
